Where “and” joins values, the source holds several entries; their conditions need not be identical. Identical values can stand only once.
System: BDF1 mice, Adenocarcinoma 755 s.c., tumor weight T/C
Experiment: NCI In Vivo Anticancer Drug Screen. Data for tumor model Adenocarcinoma 755 (subcutaneous) in B6D2F1 (BDF1) mice
Conditions: endpoint: mean tumor weight, higher = larger tumour
Protocol: The antitumor activity of compounds was measured in mice bearing transplantable tumors. Survival or tumor size were measured and the results are expressed as the measurement made in the treated group (T) divided by the measurement made in the vehicle treated control group (C). The tumor model used in this assay is Adenocarcinoma 755 (subcutaneous) in B6D2F1 (BDF1) mice

With `OCC1OC(n2cnc3c(=S)nc[nH]c32)C(O)C1O` (stereo unspecified) the T/C (dose: 0.28 mg/kg/injection, schedule: Q01DX011 (ip), vehicle: carboxymethylcellulose (CMC)) was 47 % of control, the T/C (dose: 0.5 mg/kg/injection, schedule: Q01DX011 (ip), vehicle: saline) was 31 % of control and the T/C (dose: 0.56 mg/kg/injection, schedule: Q01DX011 (ip), vehicle: carboxymethylcellulose (CMC)) was 100 % of control. For the same compound, the T/C (dose: 1.0 mg/kg/injection, schedule: Q01DX011 (oral), vehicle: methylcellulose (MC)) was 59 % of control, the T/C (dose: 1.0 mg/kg/injection, schedule: Q01DX011 (oral), vehicle: saline) was 63 % of control and the T/C (dose: 1.12 mg/kg/injection, schedule: Q01DX011 (ip), vehicle: carboxymethylcellulose (CMC)) was 30 % of control. The T/C (dose: 1.25 mg/kg/injection, schedule: Q01DX011 (ip), vehicle: saline) was 26 % of control, the T/C (dose: 1.5 mg/kg/injection, schedule: Q01DX011 (ip), vehicle: carboxymethylcellulose (CMC)) was 65 % of control and the T/C (dose: 2.0 mg/kg/injection, schedule: Q01DX011 (oral), vehicle: methylcellulose (MC)) was 9 % of control. For the same compound, the T/C (dose: 2.0 mg/kg/injection, schedule: Q01DX011 (oral), vehicle: saline) was 47 % of control, the T/C (dose: 2.23 mg/kg/injection, schedule: Q01DX011 (ip), vehicle: carboxymethylcellulose (CMC)) was 4 % of control and 7 % of control and the T/C (dose: 2.5 mg/kg/injection, schedule: Q01DX011 (ip), vehicle: carboxymethylcellulose (CMC)) was 34 % of control. The T/C (dose: 3.0 mg/kg/injection, schedule: Q01DX011 (oral), vehicle: methylcellulose (MC)) was 14 % of control, the T/C (dose: 3.75 mg/kg/injection, schedule: Q01DX011 (ip), vehicle: carboxymethylcellulose (CMC)) was 6 % of control and 12 % of control and the T/C (dose: 4.0 mg/kg/injection, schedule: Q01DX011 (oral), vehicle: methylcellulose (MC)) was 4 % of control. For the same compound, the T/C (dose: 4.0 mg/kg/injection, schedule: Q01DX011 (oral), vehicle: saline) was 9 % of control, the T/C (dose: 4.47 mg/kg/injection, schedule: Q01DX011 (ip), vehicle: carboxymethylcellulose (CMC)) was 10 % of control and the T/C (dose: 5.0 mg/kg/injection, schedule: Q01DX011 (oral), vehicle: methylcellulose (MC)) was 3 % of control. The T/C (dose: 7.5 mg/kg/injection, schedule: Q01DX011 (ip), vehicle: carboxymethylcellulose (CMC)) was 5 % of control and 8 % of control, the T/C (dose: 8.0 mg/kg/injection, schedule: Q01DX011 (oral), vehicle: saline) was 7 % of control and the T/C (dose: 8.94 mg/kg/injection, schedule: Q01DX011 (ip), vehicle: carboxymethylcellulose (CMC)) was 5 % of control. For the same compound, the T/C (dose: 10.0 mg/kg/injection, schedule: Q01DX006 (iv), vehicle: saline) was 2 % of control, the T/C (dose: 10.0 mg/kg/injection, schedule: Q01DX011 (ip), vehicle: saline) was 4 % of control and the T/C (dose: 10.0 mg/kg/injection, schedule: Q01DX011 (oral), vehicle: methylcellulose (MC)) was 2 % of control. For the same compound, the T/C (dose: 10.0 mg/kg/injection, schedule: Q01DX011 (sc), vehicle: saline) was 4 % of control, the T/C (dose: 10.0 mg/kg/injection, schedule: Q03DX004 (im), vehicle: saline) was 3 % of control and the T/C (dose: 15.0 mg/kg/injection, schedule: Q01DX011 (ip), vehicle: carboxymethylcellulose (CMC)) was 2 % of control and 7 % of control. For the same compound, the T/C (dose: 17.87 mg/kg/injection, schedule: Q01DX011 (ip), vehicle: carboxymethylcellulose (CMC)) was 6 % of control, the T/C (dose: 18.75 mg/kg/injection, schedule: Q01DX011 (ip), vehicle: carboxymethylcellulose (CMC)) was 2 % of control and the T/C (dose: 20.0 mg/kg/injection, schedule: Q01DX006 (iv), vehicle: saline) was 2 % of control. The T/C (dose: 20.0 mg/kg/injection, schedule: Q01DX011 (ip), vehicle: saline) was 4 % of control, the T/C (dose: 20.0 mg/kg/injection, schedule: Q01DX011 (sc), vehicle: saline) was 2 % of control and the T/C (dose: 20.0 mg/kg/injection, schedule: Q03DX004 (im), vehicle: saline) was 2 % of control. For the same compound, the T/C (dose: 25.0 mg/kg/injection, schedule: Q01DX011 (ip), vehicle: carboxymethylcellulose (CMC)) was 3 % of control, the T/C (dose: 35.75 mg/kg/injection, schedule: Q01DX011 (ip), vehicle: carboxymethylcellulose (CMC)) was 5 % of control and the T/C (dose: 37.5 mg/kg/injection, schedule: Q01DX011 (ip), vehicle: carboxymethylcellulose (CMC)) was 2 % of control and 5 % of control. The T/C (dose: 40.0 mg/kg/injection, schedule: Q01DX006 (iv), vehicle: saline) was 3 % of control, the T/C (dose: 40.0 mg/kg/injection, schedule: Q01DX010 (oral), vehicle: saline) was 3 % of control and the T/C (dose: 40.0 mg/kg/injection, schedule: Q01DX011 (ip), vehicle: saline) was 3 % of control. The T/C (dose: 40.0 mg/kg/injection, schedule: Q01DX011 (sc), vehicle: saline) was 4 % of control, the T/C (dose: 40.0 mg/kg/injection, schedule: Q03DX004 (im), vehicle: saline) was 1 % of control and the T/C (dose: 57.0 mg/kg/injection, schedule: Q01DX011 (ip), vehicle: carboxymethylcellulose (CMC)) was 9 % of control. The T/C (dose: 71.5 mg/kg/injection, schedule: Q01DX011 (ip), vehicle: carboxymethylcellulose (CMC)) was 5 % of control, the T/C (dose: 73.0 mg/kg/injection, schedule: Q01DX011 (ip), vehicle: carboxymethylcellulose (CMC)) was 4 % of control and the T/C (dose: 75.0 mg/kg/injection, schedule: Q01DX011 (ip), vehicle: carboxymethylcellulose (CMC)) was 4 % of control. The T/C (dose: 80.0 mg/kg/injection, schedule: Q01DX006 (iv), vehicle: saline) was 3 % of control, the T/C (dose: 80.0 mg/kg/injection, schedule: Q01DX011 (ip), vehicle: alkali diluted with saline) was 4 % of control and the T/C (dose: 80.0 mg/kg/injection, schedule: Q01DX011 (ip), vehicle: saline) was 5 % of control. The T/C (dose: 80.0 mg/kg/injection, schedule: Q01DX011 (sc), vehicle: saline) was 4 % of control, the T/C (dose: 80.0 mg/kg/injection, schedule: Q03DX004 (im), vehicle: saline) was 2 % of control and the T/C (dose: 115.0 mg/kg/injection, schedule: Q01DX011 (ip), vehicle: carboxymethylcellulose (CMC)) was 3 % of control. For the same compound, the T/C (dose: 120.0 mg/kg/injection, schedule: Q01DX011 (ip), vehicle: alkali diluted with saline) was 2 % of control and 3 % of control, the T/C (dose: 143.0 mg/kg/injection, schedule: Q01DX011 (ip), vehicle: carboxymethylcellulose (CMC)) was 5 % of control and the T/C (dose: 146.0 mg/kg/injection, schedule: Q01DX011 (ip), vehicle: carboxymethylcellulose (CMC)) was 6 % of control. The T/C (dose: 150.0 mg/kg/injection, schedule: Q01DX011 (ip), vehicle: carboxymethylcellulose (CMC)) was 4 % of control, the T/C (dose: 160.0 mg/kg/injection, schedule: Q01DX011 (ip), vehicle: alkali diluted with saline) was 3 % of control and the T/C (dose: 200.0 mg/kg/injection, schedule: Q01DX011 (ip), vehicle: carboxymethylcellulose (CMC)) was 6 % of control. The T/C (dose: 225.0 mg/kg/injection, schedule: Q01DX011 (ip), vehicle: carboxymethylcellulose (CMC)) was 6 % of control, the T/C (dose: 231.0 mg/kg/injection, schedule: Q01DX011 (ip), vehicle: carboxymethylcellulose (CMC)) was 5 % of control and the T/C (dose: 250.0 mg/kg/injection, schedule: Q01DX011 (ip), vehicle: carboxymethylcellulose (CMC)) was 3 % of control. For the same compound, the T/C (dose: 300.0 mg/kg/injection, schedule: Q01DX011 (ip), vehicle: carboxymethylcellulose (CMC)) was 7 % of control, the T/C (dose: 320.0 mg/kg/injection, schedule: Q01DX001 (ip), vehicle: alkali diluted with saline) was 5 % of control and 7 % of control and the T/C (dose: 320.0 mg/kg/injection, schedule: Q01DX001 (oral), vehicle: alkali diluted with saline) was 18 % of control. For the same compound, the T/C (dose: 320.0 mg/kg/injection, schedule: Q03DX004 (ip), vehicle: alkali diluted with saline) was 1 % of control and 5 % of control, the T/C (dose: 320.0 mg/kg/injection, schedule: Q03DX004 (oral), vehicle: alkali diluted with saline) was 2 % of control and the T/C (dose: 320.0 mg/kg/injection, schedule: Q07DX002 (ip), vehicle: alkali diluted with saline) was 3 % of control and 7 % of control. The T/C (dose: 320.0 mg/kg/injection, schedule: Q07DX002 (oral), vehicle: alkali diluted with saline) was 4 % of control, the T/C (dose: 480.0 mg/kg/injection, schedule: Q01DX001 (ip), vehicle: alkali diluted with saline) was 4 % of control and 9 % of control and the T/C (dose: 480.0 mg/kg/injection, schedule: Q01DX001 (oral), vehicle: alkali diluted with saline) was 8 % of control. For the same compound, the T/C (dose: 480.0 mg/kg/injection, schedule: Q03DX004 (ip), vehicle: alkali diluted with saline) was 2 % of control and 3 % of control, the T/C (dose: 480.0 mg/kg/injection, schedule: Q07DX002 (ip), vehicle: alkali diluted with saline) was 6 % of control and the T/C (dose: 480.0 mg/kg/injection, schedule: Q07DX002 (oral), vehicle: alkali diluted with saline) was 7 % of control. For the same compound, the T/C (dose: 640.0 mg/kg/injection, schedule: Q01DX001 (ip), vehicle: alkali diluted with saline) was 5 % of control, the T/C (dose: 640.0 mg/kg/injection, schedule: Q01DX001 (oral), vehicle: alkali diluted with saline) was 9 % of control and the T/C (dose: 640.0 mg/kg/injection, schedule: Q07DX002 (ip), vehicle: alkali diluted with saline) was 4 % of control. For the same compound, the T/C (dose: 640.0 mg/kg/injection, schedule: Q07DX002 (oral), vehicle: alkali diluted with saline) was 3 % of control, the T/C (dose: 960.0 mg/kg/injection, schedule: Q01DX001 (oral), vehicle: alkali diluted with saline) was 9 % of control and the T/C (dose: 960.0 mg/kg/injection, schedule: Q07DX002 (oral), vehicle: alkali diluted with saline) was 6 % of control.
With `CC(=O)OCC(=O)C1(O)CCC2C3CCC4=CC(=O)CCC4(C)C34OC4CC21C` (stereo unspecified) the T/C (dose: 25.0 mg/kg/injection, schedule: Q01DX011 (sc), vehicle: steriod suspending solution) was 87 % of control, the T/C (dose: 200.0 mg/kg/injection, schedule: Q01DX011 (sc), vehicle: steriod suspending solution) was 44 % of control and the T/C (dose: 450.0 mg/kg/injection, schedule: Q01DX011 (sc), vehicle: steriod suspending solution) was 17 % of control.

Reference: PubChem BioAssay AID180 (DTP/NCI, 2004)
